Some test systems named below: EKVX NSCLC; HCT-15 colon; HOP-92 NSCLC; HT29 colon; IGROV1 ovarian; K-562 leukemia; SF-268 CNS; SK-MEL-5 melanoma; SR leukemia.
Assay in all cases: DTP human tumour cell line panel, 48 h

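Grown in 96-well plates, cells were treated for 48 hours with each compound at five concentrations. Insufficient inhibition: endpoint recorded as highest concentration tested. GI50 marks 50% less growth. TGI marks complete inhibition of growth.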

For the molecule `O=c1c2cc(Br)ccc2nc(CCl)n1-c1ccc(O)c([N+](=O)[O-])c1`, the TGI in the experiment with EKVX NSCLC was 31.4 µM; in the experiment on HCT-15 colon, 41.2 µM; with HOP-92 NSCLC it was 56.6 µM; in the experiment with HT29 colon it was 68.2 µM; in the experiment with IGROV1 ovarian, 51.6 µM; in the experiment on K-562 leukemia it was 48.5 µM. In addition, the concentration for total growth inhibition (TGI) in the experiment on SF-268 CNS stood at 44 µM; in the experiment on SK-MEL-5 melanoma, 29.8 µM.

Regarding `O=C(/C=C/c1ccccc1)CC(=O)CCC(=O)Nc1ccc(Cl)cc1`, the TGI with EKVX NSCLC, in the experiment on HCT-15 colon, in the experiment on HT29 colon, in the experiment on IGROV1 ovarian, in the experiment with K-562 leukemia and in the experiment on SF-268 CNS was > 100 µM throughout. Besides, the TGI in the experiment with SK-MEL-5 melanoma was > 100 µM.

Take `Cc1ccccc1C(=O)N1CCN(C(=O)c2ccccc2C)CC1`: the TGI with EKVX NSCLC, in the experiment on HCT-15 colon, in the experiment with HOP-92 NSCLC, in the experiment on HT29 colon, in the experiment with IGROV1 ovarian and in the experiment on K-562 leukemia was > 100 µM throughout. The TGI in the experiment with SF-268 CNS, with SK-MEL-5 melanoma and in the experiment with SR leukemia was > 100 µM in each case.

With `CCC(=O)Nc1nc2c(ncn2C2OC(COC(=O)CC)C(OC(=O)CC)C2OC(=O)CC)c(=O)[nH]1` (configuration not stated), the concentration for total growth inhibition (TGI) with EKVX NSCLC, in the experiment with HCT-15 colon, in the experiment on HT29 colon, in the experiment with IGROV1 ovarian, in the experiment on K-562 leukemia and with SF-268 CNS was > 100 µM in each case. Moreover, the TGI in the experiment on SK-MEL-5 melanoma and with SR leukemia was > 100 µM throughout.

Take `O=[N+]([O-])c1ccc(-c2ccc(-c3csc(Nc4ccccc4)n3)o2)cc1`: the total growth inhibition concentration (TGI) is 33.5 µM in the experiment on EKVX NSCLC; 42.5 µM with HCT-15 colon; 37 µM in the experiment with HOP-92 NSCLC; 49.7 µM in the experiment with HT29 colon; > 63.9 µM with IGROV1 ovarian; 32.1 µM in the experiment with K-562 leukemia. In addition, the results for the TGI with SF-268 CNS, in the experiment with SK-MEL-5 melanoma and in the experiment with SR leukemia were 33.2 µM, 40.1 µM and 4.76 µM, respectively.

Regarding `COC(=O)C1(C(=O)OC)CC(=O)c2cc3c(cc2-c2c(cc(OC)c(OC)c2OC)C1)OCO3`, the TGI is > 211 µM in the experiment on EKVX NSCLC; > 211 µM with HCT-15 colon; 167 µM in the experiment with HOP-92 NSCLC; > 211 µM with HT29 colon; > 211 µM in the experiment on IGROV1 ovarian; > 211 µM with K-562 leukemia. The TGI in the experiment with SF-268 CNS, with SK-MEL-5 melanoma and in the experiment on SR leukemia was > 211 µM each time.

Consider `CSc1nnc(COc2ccc(Cl)cc2)o1`, for which the TGI in the experiment with EKVX NSCLC, in the experiment with HCT-15 colon, with HT29 colon, in the experiment with IGROV1 ovarian, with SF-268 CNS and in the experiment on SK-MEL-5 melanoma was > 100 µM throughout.

Consider `Cc1nc(C(N)=S)sc1C(=O)/C=C/c1c(O)ccc2ccccc12`, for which the TGI is > 100 µM in the experiment on EKVX NSCLC; > 100 µM in the experiment with HCT-15 colon; > 100 µM with HOP-92 NSCLC; > 100 µM in the experiment with HT29 colon; > 100 µM with IGROV1 ovarian; > 64.7 µM in the experiment with K-562 leukemia. In addition, the TGI in the experiment with SF-268 CNS and in the experiment with SK-MEL-5 melanoma was > 100 µM in each case.

With `O=C(N/N=C/c1cccc(F)c1)c1ccncc1`, the TGI in the experiment on HCT-15 colon, in the experiment with HOP-92 NSCLC, with HT29 colon, with SF-268 CNS, in the experiment on SK-MEL-5 melanoma and with SR leukemia was > 100 µM each time.

Consider `Cc1c2ccccc2cc2ccc3oc([N+](=O)[O-])cc3c12`, for which the TGI in the experiment with EKVX NSCLC, in the experiment with HCT-15 colon, with HOP-92 NSCLC, with HT29 colon, in the experiment on IGROV1 ovarian and in the experiment on K-562 leukemia was > 100 µM in each case. Moreover, the TGI in the experiment on SF-268 CNS and in the experiment on SK-MEL-5 melanoma was > 100 µM in each case.

As for `COc1ccc(C(=O)NCCN(C)C)c2nc3ccccc3nc12`, the TGI was 33.2 µM with EKVX NSCLC; 24.4 µM in the experiment on HCT-15 colon; > 27.4 µM in the experiment with HOP-92 NSCLC; 15.1 µM with HT29 colon; 5.72 µM in the experiment with K-562 leukemia; > 36.6 µM in the experiment with SK-MEL-5 melanoma. The same molecule had a TGI in the experiment with SR leukemia of 23.3 µM.

As for `c1ccc(N2N=C(c3ccco3)CC2c2ccco2)cc1` (configuration not stated), the TGI with EKVX NSCLC, in the experiment with HCT-15 colon, in the experiment with HT29 colon, with IGROV1 ovarian, in the experiment with K-562 leukemia and with SF-268 CNS was > 100 µM each time. For the same molecule, the TGI in the experiment on SK-MEL-5 melanoma and in the experiment on SR leukemia was > 100 µM in each case.

In the case of `COc1ccc(CN2CCC/C=C/CC(Cl)(Cl)C2=O)cc1`, the TGI with HCT-15 colon was > 100 µM; with HOP-92 NSCLC, 62.5 µM; in the experiment on HT29 colon it was > 100 µM; in the experiment with IGROV1 ovarian it was > 100 µM; in the experiment with K-562 leukemia, > 100 µM; in the experiment with SF-268 CNS it was > 100 µM. Further, the TGI in the experiment with SK-MEL-5 melanoma amounted to 35 µM; in the experiment with SR leukemia, 68.8 µM.

As to `NC(=S)NN/C=C(\C=Nc1ccccc1)[N+](=O)[O-]`, the TGI in the experiment on EKVX NSCLC, in the experiment on HCT-15 colon, in the experiment on HOP-92 NSCLC, in the experiment with HT29 colon, in the experiment on IGROV1 ovarian and in the experiment on K-562 leukemia was > 100 µM each time. Further, in the experiment on SF-268 CNS, the TGI was > 100 µM.

Turning to `COc1ccc(/C(=N\NC(=S)NN)C(c2ccc(OC)cc2)C2C(=O)Oc3ccccc32)cc1` (configuration not stated), the GI50 in the experiment on EKVX NSCLC, with HCT-15 colon, in the experiment on HOP-92 NSCLC, with HT29 colon, in the experiment with IGROV1 ovarian and with K-562 leukemia was > 100 µM each time. Also, the GI50 in the experiment with SF-268 CNS and with SK-MEL-5 melanoma was > 100 µM in each case. For the same molecule, the TGI in the experiment with EKVX NSCLC, in the experiment on HCT-15 colon, in the experiment with HOP-92 NSCLC, in the experiment on HT29 colon, in the experiment with IGROV1 ovarian and in the experiment with K-562 leukemia was > 100 µM throughout. For the same molecule, the TGI in the experiment on SF-268 CNS, with SK-MEL-5 melanoma and in the experiment with SR leukemia was > 100 µM throughout.

As for `CC(=O)N1CCC2(c3ccccc3N(C(C)=O)C2c2ccc(O)cc2)C1C(=O)O` (configuration not stated), the TGI in the experiment on EKVX NSCLC, in the experiment on HOP-92 NSCLC, with HT29 colon, in the experiment with K-562 leukemia, with SF-268 CNS and in the experiment on SK-MEL-5 melanoma was > 100 µM in each case. Further, the TGI in the experiment with SR leukemia was > 100 µM.

These data come from PubChem BioAssay (NCI).
